Test results published in US8664269B2, “Nitroglycerin therapy for those unable to metabolize nitroglycerin” (Duke University, priority 2005, dated 2014).

Columns and labels:
[1] = tested on: alcoholic patient who develops angina; experiment: Example IV: GTN therapy of angina in an alcoholic; format: in vivo, human; details: for resolution of angina: 600 mg P.O. (TID) with sublingual GTN (0.4 mg)
Text: A alcoholic needs to imbibe alcohol to avoid withdrawal symptoms. The patient develops angina. Sublingual GTN ([…]) has no effect.

[2] = tested on: alcoholic with restenosis and chest pain; experiment: Example VI: restenosis and chest pain in an alcoholic; format: in vivo, human
Text: A alcoholic has restenosis and chest pain.

[3] = tested on: patient with Type 1 diabetes on insulin regimen who develops angina; experiment: Example III: GTN therapy of angina, Type 1 diabetes patient on insulin regimen; format: in vivo, human
[4] = tested on: patient with persistent angina; experiment: Example I: GTN therapy of persistent angina, patient; format: in vivo, human
Description: A patient has persistent angina. Treatment by infusion with GTN 100 mcg/min has no effect. Infusion of nitroglycerin 100 mcg/min is continued along with infusion of N-acetylcysteine at 50 mg/kg every six hours.

[5] = tested on: patient with congestive heart failure; experiment: Example II: GTN therapy of congestive heart failure, patient; format: in vivo, human
Description: A patient has congestive heart failure manifested by pulmonary congestion and low ventricular function. Treatment by infusion with GTN (100 mcg/min) has no effect. Infusion of GTN (100 mcg/min) is continued along with infusion of N-acetylcysteine at 50 mg/kg every 6 hours. After 10 minutes time, pulmonary congestion attenuates and ventricular function improves.

[6] = tested on: alcoholic with chronic obstructive pulmonary disease; experiment: Example VIII: obstructive lung disease in an alcoholic, shortness of breath; format: in vivo, human
Text: A alcoholic with obstructive lung disease (chronic obstructive pulmonary disease) has shortness of breath.

Patient with asthma = experiment: Example IX: asthma, patient, shortness of breath; format: in vivo, human; details: nebulized combination of GTN (100 micromolar) and NAC (dose of I millimolar)
Text: A patient with asthma experiences shortness of breath.

[7] = tested on: Patient with interstitial lung disease (pulmonary fibrosis); experiment: Example X: interstitial lung disease (pulmonary fibrosis), patient; format: in vivo, human; details: nebulized GTN (10 micromolar) together with nebulized NAC (1 millimolar); patient on prednisone therapy
Text: A patient with interstitial lung disease (pulmonary fibrosis) experiences shortness of breath despite being on prednisone therapy.

[8] = tested on: patients receiving continuous GTN; details: intravenous NAC, short term studies; cited from earlier work
[9] = tested on: patient with heart attack (myocardial infarction); experiment: Example V: myocardial infarction, patient; format: in vivo, human; details: IV GTN alone
Text: A patient has a heart attack (myocardial infarction).

[10] = tested on: person with high blood pressure; experiment: Example VII: high blood pressure; format: in vivo, human; details: 50 mg/min IV GTN alone; 200 mmHg systolic
Description: A person has high blood pressure (200 mmHg systolic). […] Administration of Composition V (50 mg/ml and NAC 75 mg/ml) at 1 ml/min causes blood pressure to fall to 160 mmHg.

[11] = infusion of N-acetylcysteine 50 mg/kg every six hours along with infusion of nitroglycerin 100 mcg/min
[12] = infusion of N-acetylcysteine 50 mg/kg every 6 hours along with infusion of GTN 100 mcg/min
[13] = infusion of GTN 100 mcg/min alone

In the case of `N[C@@H](CCC(=O)N[C@@H](CS)C(=O)NCC(=O)O)C(=O)O` [glutathione], the resolution of angina [1] is reported as “resolution of the angina” and the chest pain ([2]; glutathione 60 mg P.O. (T.I.D.) supplementing sublingual GTN 0.5 mg) is reported as “chest pain is relieved”.
With `O=C1O[C@H]([C@@H](O)CO)C(O)=C1O` [Vitamin C, ascorbic acid] the resolution of angina ([3]; Vitamin C 10,000 mg/day P.O. along with sublingual GTN (0.4 mg)) was “causes the angina to resolve” and the chest pain ([2]; oral vitamin C (10,000 mg/day P.O.) supplementing sublingual GTN 0.5 mg) was “chest pain is relieved”.
With `CC(=O)N[C@@H](CS)C(=O)O` [N-acetylcysteine] the resolution of angina [4, 11] was “the angina is resolved”, the “time until angina is resolved” value [4, 11] was 3 min and the pulmonary congestion [5, 12] was “attenuates”. The “time until pulmonary congestion attenuates and ventricular function improves” value [5, 12] was 10 min, the ventricular function [5, 12] was “improves” and the resolution of angina ([3]; N-acetylcysteine 600 mg P.O. TID along with sublingual GTN (0.4 mg)) was “causes the angina to resolve”. For the same compound, the resolution of angina [1] was “resolution of the angina”, the chest pain ([2]; oral NAC (300 mg) supplementing sublingual GTN 0.5 mg) was “chest pain is relieved” and the shortness of breath ([6]; nebulized combination of GTN (100 micromolar) and NAC (1 millimolar)) was “causes improvement”. For the same compound, the shortness of breath (Patient with asthma) was “causes improvement”, the shortness of breath [7] was “causes improvement” and the GTN tolerance [8] was “reverse GTN tolerance”.
For `O=[N+]([O-])OCC(CO[N+](=O)[O-])O[N+](=O)[O-]` [GTN, nitroglycerin], the “effect on persistent angina” value [4, 13] was “no effect”, the “effect on congestive heart failure (pulmonary congestion, low ventricular function)” value [5, 13] was “no effect” and the effect on angina ([3]; sublingual GTN (0.4 mcg) alone) was “no effect”. For the same compound, the effect on angina ([1]; sublingual GTN (0.4 mcg) alone) was “no effect”, the “response of myocardial infarction patient” value [9] was “does not respond” and the chest pain ([2]; sublingual GTN 0.5 mg alone) was “does not relieve chest pain”. The “response of high blood pressure” value [10] was “does not respond” and the shortness of breath ([6]; nebulized GTN at a dose of 100 micromolar alone) was “does not cause improvement”.
